Assay [1] has as its system human neutrophils. Description: Cytokine production by LPS-stimulated human neutrophils. Type of assay: cell-based. To be noted: human neutrophils stimulated with LPS. An excerpt: All kinds of protocols used in human beings were approved by the Institutional Review Board (IRB) at Dong-A University Hospital, and prior consents were obtained from all blood donors. Peripheral blood was collected from healthy donors, and human peripheral monocytes were separated using a Histopaque-1077 gradient. Neutrophils were separated through methods such as dextran precipitation of red blood cell, hypotonic lysis, and usage of lymphocyte isolation medium gradient, as known in the related art (Bae, Y. S. et al. Blood 97, 2854-2862(2001)). The separated human leukocytes were used immediately.
Next, an effect of the Ac-PGP on production of cytokines by human neutrophils and PBMCs was examined. […] A human CXCR2 chemokine agonist CXCL8 had few effects on production of TNF-α or IFN-γ stimulated with LPS (FIG. 28 to FIG. 31). Therefore, the Ac-PGP could improve both antiseptic activities in leukocytes derived from human beings and mice.

The test system of assay [2] is CLP mice. Description: Survival of CLP sepsis mice. In kind it is in vivo, mouse. The procedure: Male WT ICR mice were used to evaluate a therapeutic effect of Ac-PGP. IFN-γ-deficient mice (kindly provided by Y. K. Kim at the Pohang University of Science and Technology, Pohang, Republic of Korea) were used for mechanism study. All Examples in which animals were used were performed according to the instructions with permission of the Institutional Review Board (IRB) for the care and management of laboratory animals at Dong-A University. In the case of the CLP, mice were anesthetized with pentothal sodium (50 mg/kg, intraperitoneally injected), and abdomen of each mouse was cut along a central cutting line to expose an appendix. Then, an ileocecal valve of the appendix was tied up, both surfaces of the ileocecal valve were punctured twice with a 22-gauge needle (or punctured once to measure a production amount of cytokines), and the abdomen was sutured. Sham CLP mice were treated in the same manner as described above, except that CLP of the appendix was not performed. A survival rate of the mice was monitored every day for 10 days. In the case of the LPS or E. coli model, E. coli and LPS were intraperitoneally injected at concentrations of 1×10^9 cells/mouse and 60 mg/kg, respectively. A survival rate of the mice was monitored once a day for 10 days.
An experimental therapeutic effect of Ac-PGP on sepsis was examined in CLP using albino Institute of Cancer Research (ICR) mice. Survival of the mice was monitored for 10 days after CLP. On the second day after the CLP, only 20% of untreated WT mice survived (FIG. 1).
The Ac-PGP was evaluated to determine whether the antiseptic activity of Ac-PGP served through CXCR2 that was a known receptor of Ac-PGP.

Assay [3] has as its system mouse neutrophils. Briefly: Disinfection activity of mouse neutrophils phagocytizing E. coli. To be noted: Ac-PGP 0.1 to 100 nM for 20 minutes, FIG. 11. Type of assay: cell-based. The method, then:
Mouse neutrophils were separated from peripheral blood using a Histopaque-1077 solution (Sigma) (Bae Y S et al. 2001 Blood. 97: 2854-2862). The neutrophils separated from normal mice were stimulated with various concentrations of Ac-PGP for 10 minutes in the presence of cytochalasin B (5 μM). To identify the role of mCXCR2, the neutrophils were pre-incubated in various concentrations of SB225002 or a vehicle (DMSO) for 30 minutes in a stationary environment, and Ac-PGP (20 μM) was added, and incubated for 10 minutes. H2O2 in a supernatant was measured using a H2O2 measurement kit (Molecular probe).
The disinfection activities of the neutrophils were measured according to a method disclosed by Yan et al. (Yan J J et al. 2004 Nat. Med. 10:161-167). The neutrophils were stationarily incubated at 37° C. for an hour on a 13 mm plastic cover slip in a 60 mm plastic culture dish. The non-attached cells were removed by PBS. The attached neutrophils were stationarily incubated for an hour with 10^6 opsonized E. coli cells. The non-phagocytized E. coli cells were washed, and the number of bacteria surviving in the neutrophils was determined before and after the E. coli cells were treated with various concentrations of Ac-PGP or vehicle for an hour. A percentage of the apoptosized bacteria was calculated as follows. […]

With acetylated-Pro-Gly-Pro [Ac-PGP], the “production of TNF-α” value in assay [1] (FIG. 28) was “remarkably suppressed”. Also, in assay [1] (FIG. 30), the “production of IFN-γ” value is reported as “remarkably improved”. In addition, the survival rate result in assay [2] (17.5 mg/kg injected 3 or 4 times from 2 hours after CLP at an interval of 12 hours, FIG. 2) was “highly increased”; in assay [2] (CLP mice pretreated with CXCR2-selective antagonist SB225002, FIG. 5), “could not improve the survival rate”; in assay [2] (CXCR2-deficient sepsis mice, FIG. 6), “could not improve a survival rate”; in assay [2] (administered 4 to 5 times at 17.5 mg/kg), “highest increase in survival rate”; in assay [2] (subcutaneous administration 2 hours after CLP, various doses, monitored 10 days, FIG. 1), “remarkably increased the survival rate in a dose-dependent manner”. Further, the “therapeutic effect (survival)” value in assay [2] (injected 10 hours after the CLP, FIG. 3) is “a therapeutic effect was still exhibited”. The “survival of the mice” value in assay [2] (injection of 7.5, 12.5 or 17.5 mg/kg, compared with PBS-injected control, FIG. 1) is “remarkably increased survival of the mice”. For the same substance, the disinfection activity entry in assay [3] is on record as “highly increased the disinfection activity in a dose-dependent manner”.

The values are drawn from patent US8937038B2, “Composition containing peptide ligand that bonds with CXCR2 for treating infective and inflammatory diseases” (priority 2010, dated 2015).
